From PubChem BioAssay (NCI)
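Dose response: 5 concentrations. Exposure: 48 h. Format: 96-well plates. Endpoint: linear interpolation; highest concentration if not reached. TGI marks complete inhibition of growth.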

How the values were obtained:
Experiment in all cases: growth of human tumour cells (NCI), 48 h
MDA-N = test system: MDA-N
T-47D breast = test system: T-47D breast
RPMI-8226 leukemia = test system: RPMI-8226 leukemia
BT-549 breast = test system: BT-549 breast
SK-MEL-5 melanoma = test system: SK-MEL-5 melanoma
SN12C renal = test system: SN12C renal
SK-OV-3 ovarian = test system: SK-OV-3 ovarian
SF-268 CNS = test system: SF-268 CNS
NCI/ADR-RES ovarian = test system: NCI/ADR-RES ovarian
LOX IMVI melanoma = test system: LOX IMVI melanoma
CCRF-CEM leukemia = test system: CCRF-CEM leukemia
KM12 colon = test system: KM12 colon
NCI-H23 lung = test system: NCI-H23 lung
HOP-62 NSCLC = test system: HOP-62 NSCLC

SMILES	TGI (MDA-N)	TGI (T-47D breast)	TGI (RPMI-8226 leukemia)	TGI (BT-549 breast)	TGI (SK-MEL-5 melanoma)	TGI (SN12C renal)	TGI (SK-OV-3 ovarian)	TGI (SF-268 CNS)	TGI (NCI/ADR-RES ovarian)	TGI (LOX IMVI melanoma)	TGI (CCRF-CEM leukemia)	TGI (KM12 colon)	TGI (NCI-H23 lung)	TGI (HOP-62 NSCLC)
COc1cc([C@@H]2c3cc4c(cc3[C@@H](N=Cc3ccc(C(=O)O[C@H]5C[C@H]6OC[C@@]6(OC(C)=O)[C@H]6[C@H](OC(=O)c7ccccc7)[C@]7(O)C[C@H](OC(=O)[C@H](OC(=O)c8ccc(C=N[C@@H]9c%10cc%11c(cc%10[C@@H](c%10cc(OC)c(O)c(OC)c%10)[C@H]%10C(=O)OC[C@@H]%109)OCO%11)cc8)[C@@H](NC(=O)c8ccccc8)c8ccccc8)C(C)=C([C@@H](OC(C)=O)C(=O)[C@]56C)C7(C)C)cc3)C3COC(=O)C32)OCO4)cc(C)c1O (some centres not stated)	7.71 µM	> 50 µM	> 50 µM	> 50 µM	> 50 µM	> 50 µM	> 39.3 µM	> 50 µM	> 50 µM	> 50 µM	> 50 µM	> 50 µM	> 50 µM	> 50 µM
COc1ccc(N=C/C=C/C(=C/COC(C)=O)OC(C)=O)cc1	43.8 µM	> 100 µM	> 100 µM	> 100 µM	76.6 µM	74.9 µM	> 100 µM	86 µM	> 100 µM	> 100 µM	> 100 µM	> 100 µM	91.7 µM	> 100 µM
CC1(c2nc3ccccc3[nH]2)CCC(CO)C(C)(C)O1 (configuration not stated)	> 100 µM	> 100 µM	> 100 µM	> 100 µM	> 100 µM	> 100 µM	> 100 µM	> 100 µM	> 100 µM	> 100 µM	> 100 µM	> 100 µM	> 100 µM	> 100 µM
COC(=O)C1(Cc2ccccc2C)Cc2ccc(C)cc2C1=O (configuration not stated)	> 100 µM	> 100 µM	32.2 µM	> 100 µM	32.1 µM	57.4 µM	> 100 µM	> 100 µM	65.6 µM	45.9 µM	> 100 µM	> 100 µM	> 100 µM	> 100 µM
O=C(CN1c2ccccc2Sc2ccccc21)n1cnc2ccccc21	> 100 µM	> 100 µM	> 100 µM	> 100 µM	> 100 µM	> 100 µM	> 100 µM	> 100 µM	> 100 µM	> 100 µM	> 100 µM	> 100 µM	> 100 µM	> 100 µM
CC1(C)O[C@@H]([C@@H](O)[C@H](O)C2SCCCS2)[C@@H](CO)O1	> 100 µM	> 100 µM	> 100 µM	> 100 µM	> 100 µM	> 100 µM	> 100 µM	> 100 µM	> 100 µM	> 100 µM	> 100 µM	> 100 µM	> 100 µM	> 100 µM
c1cc(-c2ccc(Oc3ccc(-c4ccncc4)cc3)cc2)ccn1	> 100 µM	> 100 µM	4.96 µM	> 59.7 µM	5.52 µM	> 100 µM	> 100 µM	> 100 µM	> 90.9 µM	> 100 µM	> 47.3 µM	> 27.4 µM	> 34 µM	> 100 µM
C=CCSC1=N/C(=C\c2ccco2)C(=O)N1CC=C	> 100 µM	> 100 µM	> 100 µM	> 100 µM	> 100 µM	> 100 µM	> 100 µM	> 100 µM	> 100 µM	> 100 µM	> 100 µM	> 100 µM	> 100 µM	> 100 µM
C[N+](C)(C)C(Cc1c[nH]c(=S)[nH]1)C(=O)O (configuration not stated)	> 100 µM	> 100 µM	> 100 µM	> 100 µM	> 100 µM	> 100 µM	> 100 µM	> 100 µM	> 100 µM	> 100 µM	> 100 µM	> 100 µM	> 100 µM	> 100 µM
CC(C)=CCc1c(O)c(CC=C(C)C)c2oc3c(c(=O)c2c1O)C(C=C(C)C)Oc1cc(O)ccc1-3 (configuration not stated)	12.1 µM	15.4 µM	20.6 µM	25 µM	21.5 µM	18.2 µM	29 µM	28 µM	38.4 µM	16 µM	7.68 µM	11.6 µM	16.2 µM	31 µM
CN(Cc1cnc2nc(N)nc(N)c2n1)c1ccc(C(=O)NC2CCCCC2)cc1	> 100 µM	> 100 µM	> 100 µM	> 100 µM	38.1 µM	> 100 µM	> 100 µM	> 100 µM	> 100 µM	> 100 µM	> 100 µM	83.2 µM	> 100 µM	> 100 µM
CC(=O)NC1C(OCc2ccccc2)OC(CO)C(O)C1OCC(=O)NC(C)C(=O)NC(CCC(=O)Nc1ccc2c(c1)CN1C(=O)c3ccccc3C1=N2)C(N)=O (configuration not stated)	> 100 µM	> 100 µM	> 100 µM	> 100 µM	> 100 µM	> 100 µM	> 100 µM	> 100 µM	> 100 µM	> 100 µM	> 100 µM	> 100 µM	> 100 µM	> 100 µM
CCOP(=O)(OCC)OC1CC(n2cnc3c(N(CC)CC)ncnc32)OC1CO[Si](C)(C)C(C)(C)C (configuration not stated)	32 µM	27.8 µM	> 100 µM	29.7 µM	31.4 µM	37.8 µM	31.6 µM	31.5 µM	51.8 µM	33.4 µM	41.2 µM	38.6 µM	37.2 µM	34 µM
